Source: patent US20250188088A1, “COMPOUND AND USE THEREOF” (ONQUALITY PHARMACEUTICALS CHINA LTD., priority 2022, published 2025)
Values after ≈ are worked out from the molar mass of the structure shown. Read-outs that look alike come from different tables or passages of the source.

Legend:
[1] = test system: rash caused by monoclonal EGFR inhibitors; assay: Prevention of rash caused by monoclonal EGFR inhibitors, topical ointment, rat model; format: in vivo, SD rats
How it was run: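 SD rats (~200 g), backs shaved, 10 per group, given EGFR monoclonal antibody i.v. (tail vein) twice weekly, with compound ointment or blank matrix ointment applied daily to a ~3×3 cm dorsal area, held 4 h then wiped off, until control rash appeared. Control rate = % of treated rats with milder rash than controls.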

[2] = Log D measurement (n-octanol/PBS shake, LC-MS/MS); format: physicochemical; details: pH 7.4, read-out: LogD7.4 (Oct/buff)
Protocol: Two replicates of test compounds (DMSO stock solution 10 mM, 2 μL/well) and QCs (DMSO 10 mM, 2 μL/well) were transferred from the storage tube to a 96-well cluster tube. Add buffer-saturated n-octanol ([…]) and n-octanol-saturated PBS (149 μL/well) to each well; vortex mix the cluster tube for 1 minute, mix by shaking on a plate shaker at 880 rpm for one hour, and then centrifuge at 4000 rpm for 10 minutes. Remove the cover pad, accurately measure a certain amount of n-octanol layer samples (4 μL/well) into a 96-well plate containing n-octanol internal standard diluent (796 μL/well); accurately measure a certain amount of buffer salt layer samples (30 μL/well) into a 96-well plate containing buffer internal standard diluent (570 μL/well); the dilution factor of the sample can be adjusted according to different properties of the sample. Samples were analyzed using a triple quadrupole mass spectrometer. The processed sample solution was analyzed by the fast isocratic elution and small column retention method, the concentration correction was carried out by dilution factor and internal standard, and the ratio of the corrected peak area was used to calculate the final result (Log D/Log P value).

[3] = test system: rash caused by small molecule EGFR inhibitors; assay: Prevention of rash caused by small molecule EGFR inhibitors, topical ointment, rat model; format: in vivo, SD rats
Description: An Experiment to Verify the Prevention of Rash Caused by Small Molecule EGFR Inhibitors with Topical Administration of Compounds of the Present Application on a Rat Animal Model A rat animal model was established. After daily gavage of a small molecule EGFR inhibitor to female SD rats for […], the rats developed extensive rashes on their backs several days later (picture shown in FIG. 1). […] Similar to humans, rats developed skin rashes on their faces and bodies after oral administration of small molecule EGFR inhibitors. Both of them had the same etiology and very similar symptoms. Therefore, rats are a proper animal model for mimicking EGFR inhibitor-induced rash. After the SD rats were fed and adapted for one week (about 200 g), the rats were divided into 10 rats per group. The hair on the back of rats was gently removed with an electric razor one day before the experiment, and then an intragastric administration test was carried out. EGFR inhibitors were dissolved in a sterile aqueous solution, and diluted with PBS buffer; the amount of each gavage was not more than 2 mL, and the dosage was shown in Table 1. The experiment comprised the administration group and the control group. After intragastric administration, apply the ointment (type and concentration are shown in Table 1) of the compound used in the present application to the backs (about 3 cm*3 cm) of rats in the administration group; apply blank matrix ointment (about 0.5 g) to the backs (about 3 cm*3 cm) of rats in the control group; fix the rats with a fixed cylinder for about 4 hours after drug application, release the rats after 4 hours, wipe off the residual drug at the application site with clean water, and put them back into the cage. The frequency of intragastric administration of EGFR inhibitors is shown in Table 1, but the compounds of the present application and blank matrix ointment are applied only once a day. The intragastric administration and application test were repeated daily until an obvious rash appeared in the control group. […] Table 1 lists the animal experiment combination of various small molecule EGFR inhibitors and the compound ointment of the present application, as well as the corresponding experiment results (wherein, the value in the control rate column=the number of rats whose rash is milder in the administration group than that in the control group/the total number of rats in the administration group×100%).

[4] = Thermodynamic solubility assay (PBS pH 6.5; isopropyl myristate); format: physicochemical; details: thermodynamic from solid
Protocol: Thermodynamic Solubility Assay
Weigh not less than 2 mg of the sample powder into a Whatman Mini-UniPrep vial. If it is required to test the thermodynamic solubility of samples in multiple buffers, a separate vial is needed for each test; add 450 μL of buffer to each Whatman Mini-UniPrep vial, respectively; after that, install the piston cap of Whatman Mini-UniPrep and press it above the liquid level, so that the filter is in contact with the buffer during shaking; shake the solubility sample by vortexing for 1 minute.
Inject 3 UV standard solutions from low to high concentrations into the HPLC, then inject the diluent and supernatant of the test compound, with two replicates of test sample; and integrate the UV peaks. Simulate a standard curve and calculate the thermodynamic solubility of the sample.

[5] = aqueous buffer, PBS buffer pH 6.5, about 25° C., read-out: Thermodynamic Solubility pH = 6.5
[6] = oil or lipid, isopropyl myristate as vehicle, about 25° C., read-out: Thermodynamic Solubility in Isopropyl Myristate

| logD [2] | solubility thermodynamic at 24 h [4, 5] | solubility thermodynamic at 24 h [4, 6] | SMILES | also measured |
| --- | --- | --- | --- | --- |
| 2.72 | 16 µg/mL (≈ 30.4 µM) | 339 µg/mL (≈ 646 µM) | CCCC(CC)C(=O)OCCN(C)C(=O)n1ccc2c(N(C)[C@H]3CN(C(=O)CC#N)CC[C@H]3C)ncnc21 (stereo partly drawn) [Compound A12] | Control Rate ([1]; Cetuximab 100 mg/kg twice a week via tail vein, ointment 0.3 wt% once a day, 10 days): 20%; Control Rate ([1]; Cetuximab 100 mg/kg twice a week via tail vein, ointment 3.0 wt% once a day, 10 days): 70%; Control Rate ([1]; Cetuximab 100 mg/kg twice a week via tail vein, ointment 10.0 wt% once a day, 10 days): 85%; Control Rate ([1]; Panitumumab 10 mg/kg twice a week via tail vein, ointment 1.0 wt% once a day, 14 days): 50%; Control Rate ([1]; Panitumumab 10 mg/kg twice a week via tail vein, ointment 5.0 wt% once a day, 14 days): 60%; Control Rate ([1]; Panitumumab 10 mg/kg twice a week via tail vein, ointment 10.0 wt% once a day, 14 days): 60%; Control Rate ([3]; Afatinib 40 mg/kg once a day, ointment 1.0 wt% once a day, 14 days): 60%; Control Rate ([3]; Afatinib 40 mg/kg once a day, ointment 3.0 wt% once a day, 14 days): 75%; Control Rate ([3]; Afatinib 40 mg/kg once a day, ointment 5.0 wt% once a day, 14 days): 90%; Control Rate ([3]; EAI045 80 mg/kg once a day, ointment 1.0 wt% once a day, 11 days): 60%; Control Rate ([3]; EAI045 80 mg/kg once a day, ointment 10.0 wt% once a day, 11 days): 70%; Control Rate ([3]; Erlotinib 70 mg/kg once a day, ointment 0.3 wt% once a day, 14 days): 20%; Control Rate ([3]; Erlotinib 70 mg/kg once a day, ointment 3.0 wt% once a day, 14 days): 50%; Control Rate ([3]; Osimertinib 60 mg/kg twice a day, ointment 0.3 wt% once a day, 10 days): 50%; Control Rate ([3]; Osimertinib 60 mg/kg twice a day, ointment 5.0 wt% once a day, 10 days): 80% |
| 2.35 | 486 µg/mL (≈ 981 µM) | 1250 µg/mL (≈ 2520 µM) | C[C@@H]1CCN(C(=O)CC#N)C[C@@H]1N(C)c1ncnc2c1ccn2C(=O)N(C)CCOC(=O)C1CCC1 [Compound A4] | – |
| 1.95 | 300 µg/mL (≈ 589 µM) | 1530 µg/mL (≈ 2990 µM) | C[C@@H]1CCN(C(=O)CC#N)C[C@@H]1N(C)c1ncnc2c1ccn2C(=O)N(C)CCOC(=O)C1CCCC1 [Compound A6] | – |
| 2.1 | 304 µg/mL (≈ 597 µM) | 2340 µg/mL (≈ 4580 µM) | C[C@@H]1CCN(C(=O)CC#N)C[C@@H]1N(C)c1ncnc2c1ccn2C(=O)N(C)CCOC(=O)C1(C)CCC1 [Compound A3] | – |
| 0.97 | 2430 µg/mL (≈ 5180 µM) | 779 µg/mL (≈ 1660 µM) | CCC(=O)OCCN(C)C(=O)n1ccc2c(N(C)[C@H]3CN(C(=O)CC#N)CC[C@H]3C)ncnc21 [Compound A20] | – |
| 1.45 | 645 µg/mL (≈ 1210 µM) | 878 µg/mL (≈ 1650 µM) | C[C@@H]1CCN(C(=O)CC#N)C[C@@H]1N(C)c1ncnc2c1ccn2C(=O)N(C)CCOC(=O)C1CC(F)(F)C1 [Compound A1] | – |
| 2.05 | 147 µg/mL (≈ 289 µM) | 1200 µg/mL (≈ 2350 µM) | C[C@@H]1CCN(C(=O)CC#N)C[C@@H]1N(C)c1ncnc2c1ccn2C(=O)N(C)CCOC(=O)CC1CCC1 [Compound A5] | – |
| 0.56 | 2940 µg/mL (≈ 5750 µM) | 208 µg/mL (≈ 407 µM) | C[C@@H]1CCN(C(=O)CC#N)C[C@@H]1N(C)c1ncnc2c1ccn2C(=O)N(C)CCOC(=O)C1CCOC1 (stereo partly drawn) [Compound A8] | – |
| 1.87 | 170 µg/mL (≈ 341 µM) | 1590 µg/mL (≈ 3200 µM) | CCC(C)C(=O)OCCN(C)C(=O)n1ccc2c(N(C)[C@H]3CN(C(=O)CC#N)CC[C@H]3C)ncnc21 (stereo partly drawn) [Compound A11] | – |
| 1.69 | 234 µg/mL (≈ 457 µM) | 1380 µg/mL (≈ 2690 µM) | CCCCCC(=O)OCCN(C)C(=O)n1ccc2c(N(C)[C@H]3CN(C(=O)CC#N)CC[C@H]3C)ncnc21 [Compound A9] | – |
| 2.07 | 233 µg/mL (≈ 456 µM) | 1830 µg/mL (≈ 3580 µM) | CCC(CC)C(=O)OCCN(C)C(=O)n1ccc2c(N(C)[C@H]3CN(C(=O)CC#N)CC[C@H]3C)ncnc21 [Compound A10] | – |
| 1.86 | 240 µg/mL (≈ 429 µM) | 1020 µg/mL (≈ 1820 µM) | C[C@@H]1CCN(C(=O)CC#N)C[C@@H]1N(C)c1ncnc2c1ccn2C(=O)N(C)CCOC(=O)C1CCC(F)(F)CC1 [Compound A2] | – |
